The results in this text go back to patent US4870097A, “Pharmaceutical use of derivatives of tryptophan” (priority 1984, dated 1989).

The subject of assay [1] is tolerance induced by morphine. In words: Antagonism to the development of tolerance to repeated administration of morphine HCl (tail flick). In kind it is in vivo, rats. The method, then: Several of the compounds of the invention were examined to determine any capacity to antagonise the development of tolerance induced by morphine. Groups of six male rats having a weight of about 200-250 were used.
At intervals of 24 hours from the first treatment (time 0), each animal (except for the control group treated with a physiological solution) received 3 mg/kg of morphine hydrochloride i.p. together with 3 mg/kg i.p. of the compounds indicated (with the exception of the group treated solely with morphine).
The determination of the threshold for the pain stimulus was effected at 15°, 30', 45' and 60' intervals from the treatment by the "tail flick" test.

The subject of assay [2] is analgesic activity of morphine. In words: Tail Flick Test: increase in the analgesic effect of morphine. In kind it is in vivo, rats. Particulars: for percentage variation in the latency of the pain sensation, 10' / percentage variation in the latency of the pain sensation, 20' / percentage variation in the latency of the pain sensation, 30' / percentage variation in the latency of the pain sensation, 45' / percentage variation in the latency of the pain sensation, 60' / percentage variation in the latency of the pain sensation, 90' / M(10'-90') average percentage variation: compound 10 mg/kg i.p. + morphine 2 mg/kg (row Morphine: alone); for percentage variation in the latency of the pain sensation, 10' / percentage variation in the latency of the pain sensation, 20' / percentage variation in the latency of the pain sensation, 30' / percentage variation in the latency of the pain sensation, 45' / percentage variation in the latency of the pain sensation, 60' / percentage variation in the latency of the pain sensation, 90': ± S.E.; for M(10'-90') average percentage variation: mean 10'-90'; for Potency ratio relative to morphine alone: rat, in vivo. Here is the method: Increase in the analgesic effect of analgesic-narcotic drugs in rats in the Tail Flick Test
The method is that described by Harris et al. (J. Pharmacol. Exp. Ther. 143 (1964) 141-148).
Male rats are used which have a weight of about 150-200 g and which have not been fasting. A point is chosen on the tail and this is irradiated by a heat source (75° C.) and the time (in seconds) for which the animal remains without moving its tail is measured.
A maximum period of time under the heat source of 8 seconds is chosen after which the animal is, in any case, removed in order to avoid tissue damage. The measurement is effected before (controls) and after treatment with the drugs.
. The percentage variation is calculated for each individual animal by the following formula: [formula] The measurements are carried out 10, 20, 30, 45, 60 and 90 minutes after treatment with the analgesics.
The results obtained are given in Table 1 which records the groups treated and the doses administered, the
average percentage variations (calculated on groups of five animals) in […]

Assay [3] concerns guinea pig gall bladder contracted with CCK-8. In words: Anti-CCK activity on guinea pig gall bladders in vitro. In kind it is biochemical. The settings on record: CCK-8 10 ng/ml, concentration antagonising 50% of contracting effect. Here is the method:
A longitudinal strip of guinea pig gall bladder is placed in a bath of Krebs for isolated organs at a temperature of 32° C. and oxygenated continuously with an oxygen-CO2 mixture (95-5 V/V).
The […] contractions are detected by means of a force transducer and recorded.
The gall bladder is contracted with the use of a CCK-8 solution at a concentration of 10 ng/ml; the antagonistic activity of the compounds of the invention towards the contracting effect of the CCK is determined with the use of different concentrations, the ED50 value, that is the concentration of the compound in mcg/ml capable of antagonising 50% of the contracting effect of the CCK, being determined.
The results obtained are set out in the following table which gives the compounds tested and the ED50 values which are calculated by the method of regression on a test of at least three experiments for each compound studied.

The mark [4] stands for this setting: days 0-7, 3 mg/kg + morphine (row Morphine: alone).

The structures appear in SMILES notation.

Take `O=C(N[C@@H](Cc1c[nH]c2ccccc12)C(=O)O)OCc1ccc(F)cc1` [Compound 1, N-p-fluorocarbobenzoxy-L-tryptophan]: in assay [1] (day 0, 3 mg/kg i.p. + morphine HCl 3 mg/kg i.p. (row Morphine: alone)), the “percentage variation in the latency time, day 0” value was 44.25%. Also, the “percentage variation in the latency time, day 1” value in assay [1] (day 1, 3 mg/kg i.p. + morphine HCl 3 mg/kg i.p. (row Morphine: alone)) turned out to be 69.33%. Further, the “percentage variation in the latency time, day 2” value in assay [1] (day 2, 3 mg/kg i.p. + morphine HCl 3 mg/kg i.p. (row Morphine: alone)) is listed as 69.21%. Further, in assay [1] (day 3, 3 mg/kg i.p. + morphine HCl 3 mg/kg i.p. (row Morphine: alone)), the “percentage variation in the latency time, day 3” value is on record as 54.03%. For the same molecule, the “percentage variation in the latency time, day 4” value in assay [1] (day 4, 3 mg/kg i.p. + morphine HCl 3 mg/kg i.p. (row Morphine: alone)) is 21.91%. The “percentage variation in the latency time, day 5” value in assay [1] (day 5, 3 mg/kg i.p. + morphine HCl 3 mg/kg i.p. (row Morphine: alone)) is on record as 33.35%. For the same molecule, the “percentage variation in the latency time, day 6” value in assay [1] (day 6, 3 mg/kg i.p. + morphine HCl 3 mg/kg i.p. (row Morphine: alone)) is 36.44%. In assay [1] (day 7, 3 mg/kg i.p. + morphine HCl 3 mg/kg i.p. (row Morphine: alone)), the “percentage variation in the latency time, day 7” value amounted to 16.1%. Besides, in assay [1] (setting [4]), the “Area subtended (1)” value was 342.6 Effect-Day and the “regression line % Effect versus Day” value is “% Effect = - 5.97 Day + 63.96”. Also, the “Area 1 / Area Morphine” value in assay [1] (days 0-7, 3 mg/kg + morphine, ratio to morphine alone) was determined as 2.44. For the same molecule, in assay [2], the “percentage variation in the latency of the pain sensation, 10'” value (“percentage variation in the latency … 10'” below) is listed as 37.6 ± 12.9%; the “percentage variation in the latency of the pain sensation, 20'” value (shortened to “percentage variation in the latency … 20'”) amounted to 89.2 ± 7.3%; the “percentage variation in the latency of the pain sensation, 30'” value (“percentage variation in the latency … 30'” for short) came out at 96.4 ± 3.5%; the “percentage variation in the latency of the pain sensation, 45'” value (“percentage variation in the latency … 45'” below) is listed as 82.6 ± 12.5%. Further, in assay [2], the “percentage variation in the latency of the pain sensation, 60'” value (shortened to “percentage variation in the latency … 60'”) worked out at 87.2 ± 7.8%; the “percentage variation in the latency of the pain sensation, 90'” value (“percentage variation in the latency … 90'” for short) is 40.6 ± 17.7%; the “M(10'-90') average percentage variation” value is reported as 72.3%; the “Potency ratio relative to morphine alone” value is listed as 2.43. Besides, in assay [3], the “Anti CCK-8 activity, ED50” value turned out to be 59.9 µg/mL.

In the case of `CC(C)Cc1ccc(C(=O)N[C@@H](Cc2c[nH]c3ccccc23)C(=O)O)cc1` [Compound 24], in assay [2], the “percentage variation in the latency … 10'” value is reported as 66.9 ± 14.8%; the “percentage variation in the latency … 20'” value is listed as 61.9 ± 17.5%; the “percentage variation in the latency … 30'” value is 84.4 ± 11.6%; the “percentage variation in the latency … 45'” value was found to be 69.1 ± 14.9%. Besides, in assay [2], the “percentage variation in the latency … 60'” value worked out at 65.2 ± 11.4%; the “percentage variation in the latency … 90'” value was 32.7 ± 19.9%; the “M(10'-90') average percentage variation” value stood at 63.4%; the “Potency ratio relative to morphine alone” value stood at 2.13. The “Anti CCK-8 activity, ED50” value in assay [3] is 327.7 µg/mL.

For the molecule `CCCCCc1ccc(C(=O)N[C@@H](Cc2c[nH]c3ccccc23)C(=O)O)cc1` [Compound 25], in assay [2], the “percentage variation in the latency … 10'” value turned out to be 32.9 ± 17.3%; the “percentage variation in the latency … 20'” value is reported as 63.7 ± 19.1%; the “percentage variation in the latency … 30'” value is listed as 97.5 ± 2.5%; the “percentage variation in the latency … 45'” value is reported as 100.0 ± 0.0%. Besides, in assay [2], the “percentage variation in the latency … 60'” value stood at 100.0 ± 0.0%; the “percentage variation in the latency … 90'” value turned out to be 82.9 ± 17.1%; the “M(10'-90') average percentage variation” value worked out at 79.5%; the “Potency ratio relative to morphine alone” value is on record as 2.67. Besides, the “Anti CCK-8 activity, ED50” value in assay [3] was 103.8 µg/mL.

Turning to `CCCCCCCc1ccc(C(=O)N[C@@H](Cc2c[nH]c3ccccc23)C(=O)O)cc1` [Compound 27], in assay [2], the “percentage variation in the latency … 10'” value amounted to 73.8 ± 18.1%; the “percentage variation in the latency … 20'” value came to 95.2 ± 4.7%; the “percentage variation in the latency … 30'” value turned out to be 86.6 ± 9.0%; the “percentage variation in the latency … 45'” value is 87.7 ± 12.3%. In assay [2], the “percentage variation in the latency … 60'” value amounted to 83.8 ± 9.9%; the “percentage variation in the latency … 90'” value is recorded as 88.4 ± 8.5%; the “M(10'-90') average percentage variation” value stood at 85.9%; the “Potency ratio relative to morphine alone” value is 2.88. For the same molecule, the “Anti CCK-8 activity, ED50” value in assay [3] was determined as 148.5 µg/mL.

Consider `CCCCCCCCCc1ccc(C(=O)N[C@@H](Cc2c[nH]c3ccccc23)C(=O)O)cc1` [Compound 28], for which, in assay [2], the “percentage variation in the latency … 10'” value is reported as 79.5 ± 12.7%; the “percentage variation in the latency … 20'” value stood at 100.0 ± 0.0%; the “percentage variation in the latency … 30'” value is 98.0 ± 2.0%; the “percentage variation in the latency … 45'” value came out at 100.0 ± 0.0%. Further, in assay [2], the “percentage variation in the latency … 60'” value worked out at 82.2 ± 17.8%; the “percentage variation in the latency … 90'” value was found to be 78.8 ± 11.4%; the “M(10'-90') average percentage variation” value stood at 89.7%; the “Potency ratio relative to morphine alone” value came to 3.01. For the same molecule, in assay [3], the “Anti CCK-8 activity, ED50” value is 18.9 µg/mL.

With `Cc1ccc(C(=O)N[C@@H](Cc2c[nH]c3ccccc23)C(=O)O)cc1C` [Compound 29], in assay [2], the “percentage variation in the latency … 10'” value worked out at 54.7 ± 14.1%; the “percentage variation in the latency … 20'” value was 62.6 ± 16.5%; the “percentage variation in the latency … 30'” value was 62.8 ± 17.5%; the “percentage variation in the latency … 45'” value was 65.9 ± 16.0%. In addition, in assay [2], the “percentage variation in the latency … 60'” value was found to be 51.4 ± 12.7%; the “percentage variation in the latency … 90'” value stood at 52.5 ± 15.7%; the “M(10'-90') average percentage variation” value is listed as 58.3%; the “Potency ratio relative to morphine alone” value was found to be 1.96. Also, the “Anti CCK-8 activity, ED50” value in assay [3] is “IN (inactive up to 400 mcg/ml)”.

Turning to `O=C(N[C@@H](Cc1c[nH]c2ccccc12)C(=O)O)c1ccc(C(F)(F)F)cc1` [Compound 30], in assay [2], the “percentage variation in the latency … 10'” value is 9.8 ± 10.5%; the “percentage variation in the latency … 20'” value was determined as 45.6 ± 16.1%; the “percentage variation in the latency … 30'” value was 69.3 ± 22.2%; the “percentage variation in the latency … 45'” value is 62.3 ± 21.9%. Moreover, in assay [2], the “percentage variation in the latency … 60'” value is listed as 54.8 ± 17.6%; the “percentage variation in the latency … 90'” value was determined as 24.7 ± 15.5%; the “M(10'-90') average percentage variation” value came out at 43.6%; the “Potency ratio relative to morphine alone” value is given as 1.46. The “Anti CCK-8 activity, ED50” value in assay [3] was “IN (inactive up to 400 mcg/ml)”.

Consider `N#Cc1ccc(C(=O)N[C@@H](Cc2c[nH]c3ccccc23)C(=O)O)cc1` [Compound 31], for which, in assay [2], the “percentage variation in the latency … 10'” value amounted to 67.6 ± 16.1%; the “percentage variation in the latency … 20'” value came to 66.3 ± 3.5%; the “percentage variation in the latency … 30'” value is listed as 81.4 ± 14.7%; the “percentage variation in the latency … 45'” value was determined as 73.4 ± 18.0%. In assay [2], the “percentage variation in the latency … 60'” value is given as 77.4 ± 10.3%; the “percentage variation in the latency … 90'” value was determined as 21.3 ± 16.5%; the “M(10'-90') average percentage variation” value was found to be 64.6%; the “Potency ratio relative to morphine alone” value worked out at 2.17. Further, in assay [3], the “Anti CCK-8 activity, ED50” value was “IN (inactive up to 400 mcg/ml)”.

In the case of `N#Cc1cccc(C(=O)N[C@@H](Cc2c[nH]c3ccccc23)C(=O)O)c1` [Compound 32], in assay [2], the “percentage variation in the latency … 10'” value turned out to be 18.7 ± 6.7%; the “percentage variation in the latency … 20'” value was determined as 60.7 ± 15.5%; the “percentage variation in the latency … 30'” value is recorded as 63.7 ± 16.3%; the “percentage variation in the latency … 45'” value was 63.7 ± 16.3%. In assay [2], the “percentage variation in the latency … 60'” value worked out at 45.8 ± 16.1%; the “percentage variation in the latency … 90'” value worked out at 22.8 ± 12.2%; the “M(10'-90') average percentage variation” value was 43.0%; the “Potency ratio relative to morphine alone” value is 1.44. Also, the “Anti CCK-8 activity, ED50” value in assay [3] is “IN (inactive up to 400 mcg/ml)”.
